Values after ≈ are worked out from the molar mass of the structure shown. A value given as a limit tells only on which side of the number the result lay.

The test system of assay [1] is HRV- 2,-29,-39,-85,-9,-15,-51, -59,-63,-89,-41. The assay can be described thus: Picornavirus Minimal Inhibitory Concentration Test (cytopathic effect reduction assay), first panel of rhinoviruses. The format is cell-based. Particulars: Human rhinovirus sp., HeLa, read-out: Med₁. Here is the method: (§1) Example 24: Picornavirus Minimal Inhibitory Concentration Test,
(§2) The Minimal Inhibitory Concentration of the compounds of the present invention against the Human Rhinovirus strains (HRV) -2,-9,-14,-15,-29,-39,-41,-42,-45,-51, -59,-63,-70,-72,-85,-86 and -89 was determined by a standard cytopathic effect reduction assay as follows. To each of the ninety six (96) wells of a microtiter 96 well tissue culture plate there was added 60 µl of an Ohio Hela cell maintenance medium [Eagle's Basal medium supplemented with 5% Foetal Calf Serum (FCS)]. To two wells there was added 60 µl of an appropriate starting dilution of a compound of formula (I) and two-fold dilutions were made to cover a wide range of compound concentrations. Subsequently there were added 120 µl of an infectious solution of virus in Eagle's Basal Medium with 2% Hepes buffer, 2% FCS and 30 mM MgCl₂ to all wells except cell and compound controls. Said infectious virus solution has a TCID₅₀-value (Tissue Culture Infectious Dose) of about 100.
(§3) The TCID₅₀-value is the dose of viruses which initiates a cytopathic effect in 50% of the inoculated cells. 150 µl of the thus obtained virus-compound mixtures were then transferred to microtitre plates with subconfluent Ohio Hela Cells, grown in 100 µl of maintenance medium. Appropriate virus controls, cell controls and compound controls were included in each test. Plates were incubated for 3 to 5 days at 33°C in 5% CO₂ atmosphere. […] The IC₅₀-value for each virus-compound series was taken as the concentration in ng/ml that protected 50% of the cells from cytopathic effects with respect to the untreated controls. In the standard test procedure, the compounds were tested against two panels of rhinoviruses, a first panel consisting of serotypes HRV- 2,-29,-39,-85,-9,-15,-51, -59,-63,-89,-41 and the other panel consisting of HRV-42,-45,-14,-70,-72 and -86.
(§4) The IC₅₀-value for each rhinovirus serotype was determined, and the efficacy of each compound was determined in terms of the Med₁-value and Med₂-value, which is the medium value of the IC₅₀-value of all serotypes from the first and second panel respectively. The following table gives the testing results with the compounds of the invention.
Background: Damage to the host cells serves as the signal in cytopathic effect assays.

The subject of assay [2] is HRV-42,-45,-14,-70,-72 and -86. The assay can be described thus: Picornavirus Minimal Inhibitory Concentration Test (cytopathic effect reduction assay), second panel of rhinoviruses. The format is cell-based. Particulars: Human rhinovirus sp., HRV42; medium value of the IC50-values of all serotypes of the second panel; Ohio Hela cells, 3 to 5 days at 33°C; concentration protecting 50% of the cells from cytopathic effects; read-out: Med₂. The protocol:
as §1, §2, §3, §4

On to `CCc1nnc(-c2ccc(OCCC3CCN(c4ccc(C)nn4)CC3)cc2)o1` [compound 1], for which the IC50 was determined as 0.006 µg/mL (≈ 0.0152 µM) in assay [1] and 0.044 µg/mL (≈ 0.112 µM) in assay [2].
Consider `CCc1noc(-c2ccc(OCCC3CCN(c4ccc(C)nn4)CC3)cc2)n1` [compound 5, 3-[4-[2-[4-(3-ethyl-1,2,4-oxadiazol-5-yl)phenoxy]ethyl]-1-piperidinyl]-6-methylpyridazine], for which the IC50 in assay [1] stood at 0.0029 µg/mL (≈ 0.00737 µM); in assay [2], 0.098 µg/mL (≈ 0.249 µM).
Regarding `CCc1nc(-c2ccc(OCCC3CCN(c4ccc(C)nn4)CC3)cc2)no1` [compound 6, 3-[4-[2-[4-(5-ethyl-1,2,4-oxadiazol-3-yl)phenoxy]ethyl]-1-piperidinyl]-6-methylpyridazine], the IC50 in assay [1] worked out at 0.0013 µg/mL (≈ 0.0033 µM); in assay [2], 0.047 µg/mL (≈ 0.119 µM).
As for `Cc1ccc(N2CCC(CCOc3ccc(-c4nc(C)no4)cc3)CC2)nn1` [compound 9], the IC50 in assay [1] was 0.004 µg/mL (≈ 0.0105 µM); in assay [2] it was 0.018 µg/mL (≈ 0.0474 µM).
`CCCCc1noc(-c2ccc(OCCC3CCN(c4ccc(C)nn4)CC3)cc2)n1` [compound 11]: the IC50 is 0.006 µg/mL (≈ 0.0142 µM) in assay [1] and 0.175 µg/mL (≈ 0.415 µM) in assay [2].
For `CCCc1noc(-c2ccc(OCCC3CCN(c4ccc(C)nn4)CC3)cc2)n1` [compound 13], the IC50 was determined as 0.0068 µg/mL (≈ 0.0167 µM) in assay [1] and 0.154 µg/mL (≈ 0.378 µM) in assay [2].
Regarding `CCc1noc(-c2ccc(OCC3CCN(c4ccc(C)nn4)CC3)cc2)n1` [compound 16], the IC50 in assay [1] amounted to 0.002 µg/mL (≈ 0.00527 µM); in assay [2], 0.083 µg/mL (≈ 0.219 µM).
Take `CCc1nc(-c2ccc(OCCC3CCN(c4ccc(C)nn4)CC3)cc2)co1` [compound 21, 3-[4-[2-[4-(2-ethyl-4-oxazolyl)phenoxy]ethyl]-1-piperidinyl]-6-methylpyridazine]: the values for the IC50 in assay [1] and in assay [2] were less than 0.0005 µg/mL and 0.02 µg/mL (≈ 0.051 µM), respectively.
Consider `CCc1csc(-c2ccc(OCCC3CCN(c4ccc(C)nn4)CC3)cc2)n1` [compound 22, 3-[4-[2-[4-(4-ethyl-2-thiazolyl)phenoxy]ethyl]-1-piperidinyl]-6-methylpyridazine], for which the IC50 is 0.001 µg/mL (≈ 0.00245 µM) in assay [1] and 0.203 µg/mL (≈ 0.497 µM) in assay [2].
Regarding `Cc1ccc(N2CCC(CCOc3ccc(-c4noc(C)n4)cc3)CC2)nn1` [compound 25], the results for the IC50 in assay [1] and in assay [2] were 0.008 µg/mL (≈ 0.0211 µM) and 0.105 µg/mL (≈ 0.277 µM), respectively.
For `CCc1nc(-c2ccc(OCCC3CCN(c4ccc(C)nn4)CC3)cc2)cs1` [compound 26], the IC50 is 0.005 µg/mL (≈ 0.0122 µM) in assay [1] and more than 0.125 µg/mL in assay [2].
For `CCCc1nc(-c2ccc(OCCC3CCN(c4ccc(C)nn4)CC3)cc2)no1` [compound 27], in that order: 0.006 µg/mL (≈ 0.0147 µM) and 0.122 µg/mL (≈ 0.299 µM).
For `CCCc1nc(-c2ccc(OCCC3CCN(c4ccc(C)nn4)CC3)cc2)co1` [compound 36], the IC50 is 0.007 µg/mL (≈ 0.0172 µM) in assay [1] and more than 0.125 µg/mL in assay [2].
The matching figures for `CCc1noc(-c2ccc(OCCN3CCN(c4ccc(Cl)nn4)CC3)cc2)n1` [compound 38]: 0.0024 µg/mL (≈ 0.00578 µM) and 0.072 µg/mL (≈ 0.174 µM).
Regarding `CCc1noc(-c2ccc(OCCC3CCN(c4ccc(Cl)nn4)C3)cc2)n1` (stereo not shown) [compound 44], the figures for the IC50 in assay [1] and in assay [2] were 0.014 µg/mL (≈ 0.035 µM) and 0.166 µg/mL (≈ 0.415 µM), respectively.
In the case of `CCc1noc(-c2ccc(OCCC3CCN(c4ccc(C)nn4)C3)cc2)n1` (stereo not shown) [compound 45], the IC50 in assay [1] is 0.006 µg/mL (≈ 0.0158 µM); in assay [2], 0.065 µg/mL (≈ 0.171 µM).
The matching figures for `CCc1nc(-c2ccc(OCCC3CCN(c4ccc(C)nn4)C3)cc2)no1` (stereo not shown) [compound 46]: 0.005 µg/mL (≈ 0.0132 µM) and 0.04 µg/mL (≈ 0.105 µM).

(Values after patent publication EP0435381B1, “Antipicornaviral pyridazinamines” (priority 1989, dated 1991).)
